These results are taken from ChEMBL document CHEMBL1151361, “Soularubinone, a new antileukemic quassionoid from Soulamea tomentosa” (1981).

Format in all cases: functional
For experiment [1], the system named is P388. Put plainly: In vivo antitumor activity against mouse P388 cells at 2 mg/kg relative to control.
The test system of experiment [2] is P388. Description: In vivo antitumor activity against mouse P388 cells at 4 mg/kg relative to control.
The subject of experiment [3] is P388. Description: In vivo antitumor activity against mouse P388 cells at 0.5 mg/kg relative to control.
Experiment [4] deals with P388. Put plainly: In vivo antitumor activity against mouse P388 cells at 9 mg/kg relative to control.

A word on the T/C: it is the ratio of treated to control. In the experiment with P388 [1], `CCC(C)C(=O)O[C@H]1C(=O)O[C@@H]2C[C@H]3C(C)=CC(=O)[C@@H](O)[C@]3(C)[C@H]3[C@]4(O)OC[C@]32[C@@H]1[C@@H](C)[C@H]4O` (some centres undefined) [AILANTHINONE] came in with a T/C of 148%.
In the case of `CC1=CC(=O)[C@@H](O)[C@]2(C)[C@H]3[C@]4(O)OC[C@]35[C@H]([C@@H](C)[C@H]4O)[C@@H](OC(=O)CC(C)(C)O)C(=O)O[C@@H]5C[C@@H]12` [SOULARUBINONE], the T/C in the experiment on P388 [2] is given as 137%.
The compound `CC[C@](C)(O)C(=O)O[C@H]1C(=O)O[C@@H]2C[C@H]3C(C)=CC(=O)[C@@H](O)[C@]3(C)[C@H]3[C@@]4(O)OC[C@]32[C@@H]1[C@@H](C)[C@H]4O` [GLAUCARUBINONE] showed a T/C in the experiment with P388 [3] of 231%.
Consider `CC(=O)O[C@H]1C(=O)O[C@@H]2C[C@H]3C(C)=CC(=O)[C@@H](O)[C@]3(C)[C@H]3[C@]4(O)OC[C@]32[C@@H]1[C@@H](C)[C@H]4O` [HOLACANTHONE], for which, in the experiment with P388 [4], the T/C came to 159%.
